Here are results for 2 compounds from article PMC5570900, “Exploiting a novel conformational switch to control innate immunity mediated by complement protein C3a” (Nature Communications, 2017).

Common to all, as to type: cell-based
Assay [1] deals with T1, C3aR (Homo sapiens, UniProt Q16581).
T1 sequence (Q16581 1-482): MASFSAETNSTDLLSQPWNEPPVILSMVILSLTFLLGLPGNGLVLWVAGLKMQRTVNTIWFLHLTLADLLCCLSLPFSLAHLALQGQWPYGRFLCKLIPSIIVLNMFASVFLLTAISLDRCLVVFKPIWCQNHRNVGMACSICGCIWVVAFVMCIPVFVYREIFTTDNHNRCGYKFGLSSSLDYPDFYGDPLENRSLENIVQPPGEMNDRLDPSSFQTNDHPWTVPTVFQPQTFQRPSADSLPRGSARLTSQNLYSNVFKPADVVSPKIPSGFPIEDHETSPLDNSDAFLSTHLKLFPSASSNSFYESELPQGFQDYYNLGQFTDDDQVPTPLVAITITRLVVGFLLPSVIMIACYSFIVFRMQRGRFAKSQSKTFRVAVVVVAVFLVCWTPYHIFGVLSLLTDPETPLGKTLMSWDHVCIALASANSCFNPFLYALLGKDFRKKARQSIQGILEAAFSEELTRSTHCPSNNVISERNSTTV
The assay can be described thus: Histamine secretion in human LAD2 mast cells (agonist mode). The arrangement: Concentration-dependent histamine secretion in human LAD2 mast cells; endogenous in cells; host or cells: LAD2 human mast cells. To be noted: compound alone, 30 min, n ≥ 3, ± SEM. How it is done:
(§1) LAD2 human mast cells (kindly provided by Dr Dean Metcalfe, National Institute of Allergy and Infectious Diseases, National Institute of Health) were cultured in StemPro®-34 Serum Free Media (Invitrogen, Australia) supplemented with StemPro®-34 nutrient, 100 U/mL penicillin, 100 μg/mL streptomycin, 2 mM GlutaMAX, and 100 ng/mL human stem cell factor (SCF). Cells were hemi-depleted weekly and were not allowed to grow beyond a density of 0.5 × 10^6/mL. This cell line was authenticated by expression of tryptase and histamine granules. For the histamine assay, 1 × 10^4 cells per well were seeded in StemPro®-34 SFM in 96-well plates for 30 min before any treatments. For agonist studies, the cells were treated with compounds prepared in media for 30 min. For antagonist studies, the cells were pre-treated with compounds prepared in SFM for 30 min before addition of C3aR agonists for another 30 min. Cells were centrifuged (500 g, 5 min, 4 °C) and cell-free supernatants were collected for measuring histamine. Histamine content was measured using the histamine EIA kit according to the manufacturer’s instructions (Abnova, Taiwan). The readings were recorded on a FLUOstar Optima (BMG LabTechnologies, Offenburg, Germany).

For assay [2], the target named is T1, C3aR. The experiment in a line: Intracellular Ca2+ release in human monocyte-derived macrophages (agonist mode). Also on record: Concentration-dependent Ca^2+ release in human monocyte-derived macrophages (HMDMs); endogenous in cells; host or cells: primary human monocyte-derived macrophages (HMDMs). To be noted: HMDMs, n ≥ 3, ± SEM. How it is done:
HMDMs were isolated using Ficoll-paque density centrifugation (GE Healthcare Bio-Science, Uppsala, Sweden) from buffy coat (of anonymous human donors) provided by the Australian Red Cross Blood Service, Brisbane. CD14^+ monocytes were positively selected using CD14 MicroBeads (Miltenyi Biotech, Auburn, USA)[40], [41]. CD14^+ monocytes were differentiated to HMDMs using 100 ng/mL of recombinant human macrophage colony-stimulating factor (PeptroTech, Rocky Hill, USA) for 7 days in Iscove’s modified Dulbecco’s media supplemented with 10% fetal bovine serum, penicillin (100 U/mL), streptomycin (100 µg/mL) and L-glutamine (2 mM). HMDMs were supplemented after 5 days with fresh medium containing 10 ng/ml macrophage colony-stimulating factor and collected by gentle scraping on day 7.
HMDMs were seeded to a 96-well clear-bottom black-wall assay plate at a density of 5 × 10^4 cells per well and allowed to adhere overnight. Prior to assay, cells were incubated with dye-loading buffer (Hank’s balance salt solution (HBSS) buffer, 4 μM Fluo-3 AM, 25 μl Pluronic acid F-127 and 1% fetal bovine serum) for 1 h at 37 °C. Cells were then washed once with assay buffer (HBSS supplemented with 2.5 mM probenecid and 20 mM HEPES, pH 7.4). Intracellular calcium release was monitored using a fluorescence imaging plate reader (excitation 495 nm, emission 520 nm). The percentage responses were plotted against logarithmic concentrations of each test compound[42].

Assay [3] addresses T1, C3aR. The experiment in a line: Inhibition of hC3a-induced histamine secretion in human LAD2 mast cells (antagonist mode). The arrangement: Concentration-dependent histamine secretion in human LAD2 mast cells; endogenous in cells; host or cells: LAD2 human mast cells. To be noted: hC3a 100 nM, pre-treated 30 min, n ≥ 3, ± SEM. The procedure: as §1

With `Cc1[nH]c(C(c2ccccc2)c2ccccc2)nc1C(=O)N[C@@H](CCCNC(=N)N)C(=O)O` [Compound 3], the EC50 in assay [1] was determined as 20 ± 10 nM; in assay [2], 22 ± 8 nM.

Consider `N=C(N)NCCCC(NC(=O)c1ccc(C(c2ccccc2)c2ccccc2)s1)C(=O)O` (stereo not drawn) [Compound 6], for which the IC50 in assay [3] was 3.5 ± 1.5 nM.

A word on the EC50: it is the concentration needed to bring the measured effect to its halfway point. What is called IC50 is the concentration that inhibits the measured activity by half.
